Experimental data as given in PMC9518264, “Design and synthesis of novel quinazolinone-based derivatives as EGFR inhibitors with antitumor activity” (Journal of Enzyme Inhibition and Medicinal Chemistry, 2022).
Where two headings read alike, the source gives them in different places.

Assays:
RXF 393 = assay: cells; assay type: cell-based; conditions: Homo sapiens
MDA-MB-231/ATCC = assay: NCI 60 cell line antiproliferative screening (SRB), Breast cancer; assay type: cell-based; conditions: Homo sapiens, MDA-MB-231, read-out: growth inhibition % (GI%)
CAKI-1 = assay: cells; assay type: cell-based; conditions: Homo sapiens
M14 = assay: cells; assay type: cell-based; conditions: Homo sapiens
HT29 = assay: cells; assay type: cell-based; conditions: Homo sapiens
HS 578T = assay: cells; assay type: cell-based; conditions: Homo sapiens, read-out: growth inhibition % (GI%)
SW-620 = assay: cells; assay type: cell-based; conditions: Homo sapiens
SK-MEL-28 = assay: cells; assay type: cell-based; conditions: Homo sapiens
UACC-62 = assay: cells; assay type: cell-based; conditions: Homo sapiens
MDA-MB-435 = assay: cells; assay type: cell-based; conditions: Homo sapiens
EGFR = EGFR (Homo sapiens, UniProt P00533); assay: In vitro EGFR kinase inhibitory assay (Kinase-Glo Max luminescence kit); assay type: biochemical
Sequence of EGFR (P00533 669-1210): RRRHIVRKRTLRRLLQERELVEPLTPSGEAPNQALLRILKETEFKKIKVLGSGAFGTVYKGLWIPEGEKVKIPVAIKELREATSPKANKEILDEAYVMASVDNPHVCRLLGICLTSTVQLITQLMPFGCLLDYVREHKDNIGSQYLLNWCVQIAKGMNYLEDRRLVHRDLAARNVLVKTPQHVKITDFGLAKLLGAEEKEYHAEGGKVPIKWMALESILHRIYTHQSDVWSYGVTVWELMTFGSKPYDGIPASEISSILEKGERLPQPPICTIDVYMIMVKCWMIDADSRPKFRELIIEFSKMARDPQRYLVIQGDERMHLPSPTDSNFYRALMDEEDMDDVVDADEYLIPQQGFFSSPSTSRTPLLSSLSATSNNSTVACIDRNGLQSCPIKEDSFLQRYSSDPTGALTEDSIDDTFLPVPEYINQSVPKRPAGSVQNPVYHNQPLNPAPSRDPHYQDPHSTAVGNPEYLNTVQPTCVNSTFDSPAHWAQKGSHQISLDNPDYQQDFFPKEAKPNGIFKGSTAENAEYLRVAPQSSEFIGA

RPMI-8226 = assay: cells; assay type: cell-based; conditions: Homo sapiens
SR = assay: cells; assay type: cell-based; conditions: Homo sapiens, read-out: growth inhibition % (GI%)
UO-31 = assay: cells; assay type: cell-based; conditions: Homo sapiens
K-562 = assay: cells; assay type: cell-based; conditions: Homo sapiens
[1] = HT-29, read-out: growth inhibition % (GI%)
[2] = SW-620, read-out: growth inhibition % (GI%)
[3] = SK-MEL-28, read-out: growth inhibition % (GI%)
[4] = UACC-62, read-out: growth inhibition % (GI%)
[5] = MDA-MB-435, read-out: growth inhibition % (GI%)
[6] = RPMI-8226, read-out: growth inhibition % (GI%)
[7] = UO-31, read-out: growth inhibition % (GI%)
[8] = K562, read-out: growth inhibition % (GI%)
[9] = HT-29, HT29, 10 μM, read-out: growth inhibition % (GI%)
[10] = SW-620, 10 μM, read-out: growth inhibition % (GI%)
[11] = SK-MEL-28, 10 μM, read-out: growth inhibition % (GI%)
[12] = UACC-62, 10 μM, read-out: growth inhibition % (GI%)
[13] = MDA-MB-435, 10 μM, read-out: growth inhibition % (GI%)
[14] = RPMI-8226, 10 μM, read-out: growth inhibition % (GI%)
[15] = UO-31, 10 μM, read-out: growth inhibition % (GI%)
[16] = K562, K-562, 10 μM, read-out: growth inhibition % (GI%)

Structure (SMILES) | inhibition at 10 µM (MDA-MB-231/ATCC) | inhibition at 10 µM (HT29; [1]) | inhibition at 10 µM (HS 578T; Hs-578T) | inhibition at 10 µM (SW-620; [2]) | inhibition at 10 µM (SK-MEL-28; [3]) | inhibition at 10 µM (UACC-62; [4]) | inhibition at 10 µM (MDA-MB-435; [5]) | IC50 (EGFR) | inhibition at 10 µM (RPMI-8226; [6]) | inhibition at 10 µM (SR) | inhibition at 10 µM (HT29; [9]) | inhibition at 10 µM (HS 578T; HS 578T, 10 μM) | inhibition at 10 µM (SW-620; [10]) | inhibition at 10 µM (SK-MEL-28; [11]) | inhibition at 10 µM (UACC-62; [12]) | inhibition at 10 µM (MDA-MB-435; [13]) | inhibition at 10 µM (RPMI-8226; [14]) | inhibition at 10 µM (SR; 10 μM) | inhibition at 10 µM (UO-31; [15]) | inhibition at 10 µM (K-562; [16]) | further results
O=C(CSc1nc2ccccc2c(=O)n1-c1ccccc1)NN=Cc1ccc(Oc2ccc(Cl)cc2)cc1 [6a, N'-(4–(4-chlorophenoxy)benzylidene)-2-((4-oxo-3-phenyl-3,4-dihydroquinazolin-2-yl)thio)acetohydrazide] | 50.8% | 40.9% | 41.1% | 56.9% | 37.6% | 33.4% | 15.4% | 0.202 ± 0.012 µM | 26.8% | 29.7% | – | – | – | – | – | – | – | – | – | – | inhibition at 10 µM (RXF 393; RXF 393, read-out: growth inhibition % (GI%)): 58%; inhibition at 10 µM (CAKI-1; CAKI-1, read-out: growth inhibition % (GI%)): 40.8%; inhibition at 10 µM (M14; M14, read-out: growth inhibition % (GI%)): 51.2%; inhibition at 10 µM (UO-31; [7]): 18.8%; inhibition at 10 µM (K-562; [8]): 38.8%
COc1ccc(Oc2ccc(C=NNC(=O)CSc3nc4ccccc4c(=O)n3-c3ccccc3)cc2)cc1 [6c, N'-(4–(4-methoxyphenoxy)benzylidene)-2-((4-oxo-3-phenyl-3,4-dihydroquinazolin-2-yl)thio)acetohydrazide] | < 15% | – | – | – | – | – | – | – | – | – | < 15% | < 15% | < 15% | < 15% | < 15% | < 15% | < 15% | < 15% | < 15% | < 15% | –
O=C(CSc1nc2ccccc2c(=O)n1-c1ccc(Cl)cc1)NN=Cc1ccc(Oc2ccc(Br)cc2)cc1 [6e, N'-(4–(4-bromophenoxy)benzylidene)-2-((3–(4-chlorophenyl)-4-oxo-3,4-dihydroquinazolin-2-yl)thio)acetohydrazide] | < 15% | – | – | – | – | – | – | – | – | – | < 15% | < 15% | < 15% | < 15% | < 15% | < 15% | < 15% | < 15% | 20.8% | < 15% | –
COc1ccc(Oc2ccc(C=NNC(=O)CSc3nc4ccccc4c(=O)n3-c3ccc(Cl)cc3)cc2)cc1 [6f, 2-((3–(4-chlorophenyl)-4-oxo-3,4-dihydroquinazolin-2-yl)thio)-N'-(4–(4-methoxyphenoxy)benzylidene)acetohydrazide] | 53.3% | 83.9% | > 100% | 55.6% | < 15% | 38.1% | < 15% | 0.133 ± 0.008 µM | 14.9% | 27.2% | – | – | – | – | – | – | – | – | – | – | inhibition at 10 µM (UO-31; [7]): 52.3%; inhibition at 10 µM (K-562; [8]): 41.6%
O=C(CSc1nc2ccccc2c(=O)n1-c1ccccc1)NN=Cc1ccc(N2CCCCC2)cc1 [6g, 2-((4-oxo-3-phenyl-3,4-dihydroquinazolin-2-yl)thio)-N'-(4-(piperidin-1-yl)benzylidene) acetohydrazide] | < 15% | – | – | – | – | – | – | – | – | – | < 15% | < 15% | < 15% | < 15% | < 15% | < 15% | 17.6% | 24.7% | 23.3% | 26.8% | inhibition at 10 µM (RXF 393; RXF 393, 10 μM, read-out: growth inhibition % (GI%)): < 15%; inhibition at 10 µM (CAKI-1; CAKI-1, 10 μM, read-out: growth inhibition % (GI%)): 22%; melting point: 164 to 166 °C; inhibition at 10 µM (M14; M14, 10 μM, read-out: growth inhibition % (GI%)): < 15%
O=C(CSc1nc2ccccc2c(=O)n1-c1ccccc1)NN=Cc1ccc(N2CCOCC2)cc1 [6h, N'-(4-morpholinobenzylidene)-2-((4-oxo-3-phenyl-3,4-dihydroquinazolin-2-yl)thio)acetohydrazide] | < 15% | – | – | – | – | – | – | – | – | – | < 15% | < 15% | < 15% | < 15% | < 15% | < 15% | < 15% | < 15% | < 15% | < 15% | –
CN1CCN(c2ccc(C=NNC(=O)CSc3nc4ccccc4c(=O)n3-c3ccccc3)cc2)CC1 [6i, N'-(4–(4-methylpiperazin-1-yl)benzylidene)-2-((4-oxo-3-phenyl-3,4-dihydroquinazolin-2-yl)thio) acetohydrazide] | < 15% | – | – | – | – | – | – | – | – | – | < 15% | < 15% | < 15% | < 15% | < 15% | < 15% | < 15% | < 15% | < 15% | < 15% | –
O=C(CSc1nc2ccccc2c(=O)n1-c1ccc(Cl)cc1)NN=Cc1ccc(N2CCCCC2)cc1 [6j, 2-((3–(4-chlorophenyl)-4-oxo-3,4-dihydroquinazolin-2-yl)thio)-N'-(4-(piperidin-1-yl)benzylidene) acetohydrazide] | 28.1% | 39.1% | 62.1% | 34.1% | 15.2% | 26.5% | < 15% | 0.478 ± 0.029 µM | < 15% | 25.2% | – | – | – | – | – | – | – | – | – | – | inhibition at 10 µM (UO-31; [7]): 47%; inhibition at 10 µM (K-562; [8]): 26.4%
O=C(CSc1nc2ccccc2c(=O)n1-c1ccc(Cl)cc1)NN=Cc1ccc(N2CCOCC2)cc1 [6k, 2-((3–(4-chlorophenyl)-4-oxo-3,4-dihydroquinazolin-2-yl)thio)-N'-(4-morpholinobenzylidene) acetohydrazide] | < 15% | – | – | – | – | – | – | – | – | – | < 15% | < 15% | < 15% | < 15% | < 15% | < 15% | < 15% | < 15% | < 15% | < 15% | –
CN1CCN(c2ccc(C=NNC(=O)CSc3nc4ccccc4c(=O)n3-c3ccc(Cl)cc3)cc2)CC1 [6l, 2-((3–(4-chlorophenyl)-4-oxo-3,4-dihydroquinazolin-2-yl)thio)-N'-(4–(4-methylpiperazin-1-yl)benzylidene)acetohydrazide] | < 15% | – | – | – | – | – | – | – | – | – | < 15% | < 15% | < 15% | < 15% | < 15% | < 15% | < 15% | < 15% | < 15% | < 15% | –
